Source: patent publication US11766427B2, “Repurposing compounds for the treatment of infections and for modulating the composition of the gut microbiome” (EUROPEAN MOLECULAR BIOLOGY LABORATORY, priority 2018, dated 2023)
Like-named read-outs stand apart in the source and are kept apart here. Blank lines part the entries; values can stand above or below the compound they belong to.

Assays:
[1] = tested on: Fusobacterium nucleatum (NT5025); experiment: Prestwick Chemical Library growth screen (OD578 growth curves, AUC); assay type: cell-based; conditions: screen at 20 μM
[2] = tested on: 40 different bacterial species; experiment: Prestwick Chemical Library growth screen, whole panel (hits, anticommensal activity); assay type: cell-based, human gut isolates
[3] = calculated; cited from earlier work
[4] = tested on: 22 strains; experiment: MIC of metformin at higher concentrations; conditions: 5/22 strains
[5] = Estimated gut concentration from administration dose; conditions: estimated from recommended administration dose
[6] = cited from earlier work

SMILES: O=c1cc(-c2ccc(O)c(O)c2)oc2cc(O)cc(O)c12 [Luteolin]
selective inhibition of the growth of Fusobacterium nucleatum (in words) [1]: selectively inhibiting the growth
n_hit ([2]; number of species inhibited of 40 different bacterial species tested): 1

Minimal Inhibitory Concentration (MIC) [4]: < 10 mM
estimated gut concentration [5]: 5 mM
SMILES: CN(C)C(=N)N=C(N)N [metformin]
anticommensal activity in the screen (in words) ([2]; 20 μM, 40 strains, FDR<0.01): did not show anticommensal activity
small intestine concentration relative to plasma concentration [3]: 30-300 fold

SMILES: CC[C@@H]([C@H](C)O)n1ncn(-c2ccc(N3CCN(c4ccc(OC[C@@H]5CO[C@@](Cn6cncn6)(c6ccc(F)cc6F)C5)cc4)CC3)cc2)c1=O [posaconazole]
maximum concentration in the duodenum ([6]; 40 mg (57 μmol) delivered to the stomach in acidic solution): 26.3 ± 10.3 µM
maximum concentration in the duodenum ([6]; 40 mg (57 μmol) delivered to the stomach in neutral solution): 13.6 ± 5.8 µM
